PubChem BioAssay (NCI)
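All cell lines were grown in 96-well plates and treated with compound for 48 hours. GI50 = concentration required for 50% inhibition of growth. TGI marks complete inhibition of growth.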

How the values were obtained:
Test in all cases: DTP human tumour cell line panel, 48 h
MDA-MB-231 breast = tested on: MDA-MB-231 breast
SK-OV-3 ovarian = tested on: SK-OV-3 ovarian
SF-539 CNS = tested on: SF-539 CNS
RPMI-8226 leukemia = tested on: RPMI-8226 leukemia
TK-10 renal = tested on: TK-10 renal
NCI-H226 lung = tested on: NCI-H226 lung
SR leukemia = tested on: SR leukemia

Compound	TGI (MDA-MB-231 breast) [µM]	TGI (SK-OV-3 ovarian) [µM]	TGI (SF-539 CNS) [µM]	TGI (RPMI-8226 leukemia) [µM]	TGI (TK-10 renal) [µM]	TGI (NCI-H226 lung) [µM]	TGI (SR leukemia) [µM]	GI50 (NCI-H226 lung) [µM]
C/C=C/C(=O)N1C(=O)OC[C@@H]1c1ccccc1	39.8	33.3	38.5	50	32.2	39.6		
Cc1ccc(S(=O)(=O)N2CCCC2C(=O)O[C@H]2CC[C@H]3CC=C[C@H]32)cc1 (some centres not stated)	> 100	> 100		77.7		> 100	> 69.6	
O=C(NC(Nc1ccc(F)c(Cl)c1)(C(F)(F)F)C(F)(F)F)OCc1ccccc1	33.5	74.1	42.6	61.4	> 100	> 100	32.7	
CCOC(=O)/C=C(/C(=O)OCC)n1ccc(=O)n(/C(=C/C(=O)OCC)C(=O)OCC)c1=O	31.9	43.7	34.2	7.08	17.6	18.9	13.5	
COc1cccc(C2C3=C(COC3=O)Oc3cc4c(cc32)OCO4)c1 (configuration not stated)	> 43.3		0.0667	3.03	93.6		> 100	
CC(=O)OC1CC[C@]2(C)C3CC[C@@]4(C)C(CCC4[C@H](C)CCCC(C)C)[C@@H]3CCC2(Br)C1 (some centres not stated)	38	> 50	18.5		26.5	> 50	24.8	
O=C(c1ccccc1)c1sc2c(=O)c(C(=O)c3ccccc3)c(C(=O)c3ccccc3)sc2c(=O)c1C(=O)c1ccccc1	> 100	> 100	51.1		> 100	> 100	> 100	
O=C(O)CCCOc1cc(-c2ccccc2F)nc2cc3c(cc12)OCO3	> 100	> 100	63.2	> 100	> 100	> 100	> 100	8.51
CN1CCC23c4c5ccc(O)c4OC2c2[nH]c4ccccc4c2CC3(O)C1C5 (configuration not stated)	86.5	> 100		55	43.5		> 100	
c1ccc(C[n+]2cccc(-c3cc4ccccc4[nH]3)c2)cc1	> 100	> 100		41.2	> 100	> 100	> 100	
CCOC(=O)c1cnc(-n2[nH]c3c(c2=O)CCCC3)[nH]c1=O	> 100	> 100	> 100	> 100	> 100	> 100	> 100	
N#CCCN(CCN(C(=O)Nc1ccccc1)c1ccccc1)C(=O)Nc1ccccc1	> 100	> 100	> 100	> 69.2	> 100	> 100	> 100	
Cc1ccc(/C=C/C(=O)c2cc(CN(C)C)c(O)c(CN(C)C)c2)cc1	27.2		34.9	48.3	> 100	59.5	62.7	
NNc1[nH]c(=S)[nH]c1C(N)=O	> 100	> 100	> 100	> 100	> 100	> 100		
